According to patent publication US20150056702A1, “METHOD AND KIT FOR CULTURING STEM CELLS” (China Medical University, priority 2013, published 2015):

Assays:
Format in all cases: cell-based, mouse
IL5 = assay: Real-time PCR, cytokine gene IL5 in ES cells; settings: for IL5 mRNA expression level: ES cells, control group = 100%
Description: (§1) An experimental group medium (BP5, BP10, BP20 or BP40) and a control group medium (without BP) were added respectively to perform the following steps. ES cells were cultured with an initial density of 1×10^4 per well in a 6-well culture dish. The medium was removed until the cells growth to be about 70 to 80% confluence, and then 1 ml TRIzol (Invitrogen) was added into each well. The cells were incubated for 5 minutes, and then was scraped by a spatula and placed into a 1.5 ml microtube to be lysed adequately. Chloroform (0.2 ml) was added into the microtubes. The mixture was shaken up and down for 15 seconds, and then incubated at room temperature for 2 to 3 minutes. Thereafter, the mixture was centrifuged at 12000 rpm at 4° C. for 15 minutes, and the supernatant was removed into another 1.5 ml microtube and isopropanol (0.5 ml) was added into the microtube with well mixing. The mixture was incubated at room temperature for 10 minutes and then centrifuged at 12000 rpm at 4° C. for 10 minutes. The supernatant was then removed. One ml of 70% ethanol containing DEPC.H2O was used to wash the remaining sediment. The sediment was centrifuged at 7500 rpm at 4° C. for 5 minutes. The supernatant was removed. The sediment was dried by vacuum suction. The dried samples were dissolved in about 0.01 to 0.02 ml of DEPC.H2O to obtain the experimental group RNA and control group RNA. Both groups were stored at −80° C.
(§2) The OD value of RNA samples in both groups obtained from the above Experiment I were measured at a wavelength of 260 nm (RNA: OD260=1 for a 40 μg/mL solution). Each RNA sample (2 μl) was added with RNA-free water until the volume of the sample reached 10 μl. Two μl oligo (dT) (100 μg/ml) was added into each sample, and the samples were incubated at 65° C. for 5 minutes. Then, the samples were immediately placed on ice and spun down. Next, 6.5 μl of a reaction solution [4 μl of 5× buffer+1 μl of 0.1 M DTT+1 μl of RNase out+0.5 μl of SSIII (Invitrogen)] was added into each of the samples, and the samples were incubated at 50° C. for about 30 to 60 minutes and at 75° C. for 15 minutes to obtain the experimental group cDNA and control group cDNA. Both groups were stored at −80° C.
(§3) This experiment was used to detect the expression levels of ES cell-related genes, i.e., Oct4 and Sox2, etc. First, 4 μl of the experimental group cDNA or control group cDNA was added into each well of a 96-well micro-reaction plate, and mixed with 6 μl of a reaction solution [0.5 μl of 6 μM forward primer+0.5 μl of 6 μM reverse primer+5 μl of SYBR Green PCR Master mix (Roche)], wherein the SYBR Green PCR Master mix included the reagents needed for Q-PCR, such as dNTPs, MgCl, Taq DNA polymerase and 2×SYBR® Green I solution. […] The cycle threshold (CT) values were measured. […]

Nanog [1] = assay: Immunofluorescence staining, Nanog in iPS cells; settings: 72 hours, control group = 100%
From the text: (§4) Nanog and SSEA1 are also marker proteins of stem cells, and their expression levels could be measured by immunofluorescence staining to further confirm whether BP can effectively maintain the self-renewal and pluripotency of stem cells.
(§5) An experimental group medium (BP5, BP10, BP20 or BP40), a LIF-containing medium (without BP), and a control group medium (without BP) were used respectively in a 6-well culture dish which comprises a slide in each well to culture ES cells with an initial density of 1×10^4 per well for 72 hours. The medium was removed and the cells were washed with PBS. Next, PBS was removed, and then 4% paraformaldehyde was added to perform the fixation at room temperature for 10 minutes. Next, paraformaldehyde was removed, and then slides were washed with 0.1% Tween-20/1X PBS three times for 10 minutes each time. The 0.3% Tween-20/1X PBS was added and held at room temperature for 30 minutes to penetrate the cell membrane to benefit the dye entry. After the slides were washed three times with 0.1% Tween-20, 5% FBS/1×PBS was added to perform a blocking reaction at room temperature for 2 hours, and then reacting with the primary antibody [anti-Nanog (Novus) or anti-SSEA1 (Millipore)] at a dilution of 1:100 at room temperature overnight. Slides were then washed 5 times with 0.1% Tween-20, then reacting with the secondary antibody [FITC-conjugated anti-mouse IgG or TRITC-conjugated anti-rabbit IgG (Sigma-Aldrich)] at a dilution of 1:500. After washed with 0.1% Tween-20 for 10 minutes, slides were mounted with the DAPI-containing UltraCruz™ Mounting medium and observed using an inverted fluorescent microscope.
By using the above culture conditions, an experimental group medium (BP5, BP10, BP20 or BP40), a LIF-containing medium (without BP), and a control group medium (without BP) were used respectively to culture iPS cells. The staining of iPS cells was performed by using the steps described above.

Jak2 = assay: Real-time PCR, Jak2 mRNA in ES cells; settings: for Jak2 Gene expression level: ES cells, control group = 100%
Description: as §1, §2, §3

Nanog [2] = assay: Immunofluorescence staining, Nanog in ES cells; settings: for Nanog expression level: ES cells, 72 hours, control group = 100%
From the text: as §4, §5

[3] = BP10 medium (about 10 μg BP/ml)
[4] = BP20 medium (about 20 μg BP/ml)
[5] = BP40 medium (about 40 μg BP/ml)
[6] = LIF-containing medium (LIF 4 ng/ml, without BP)

Compound | IL5 mRNA expression level (IL5; BP5 medium (about 5 μg BP/ml)) | IL5 mRNA expression level (IL5; [3]) | mRNA expression level of IL-5 (IL5; BP-containing ES cell medium, result in words) | Nanog expression level (Nanog [1]; BP5 medium (about 5 μg BP/ml)) | Nanog expression level (Nanog [1]; [3]) | Nanog expression level (Nanog [1]; [4]) | Nanog expression level (Nanog [1]; [5]) | Jak2 Gene expression level (Jak2; BP5 medium (about 5 μg BP/ml)) | Jak2 Gene expression level (Jak2; [3]) | mRNA expression level of Jak2 (Jak2; BP-containing ES cell medium (BP5 or BP10), result in words) | Nanog expression level (Nanog [2]; BP5 medium (about 5 μg BP/ml)) | Nanog expression level (Nanog [2]; [3]) | Nanog expression level (Nanog [2]; [4]) | Nanog expression level (Nanog [2]; [5]) | expression level of Nanog (Nanog [2]; BP-containing ES cell medium vs control group (without BP), result in words) | IL5 mRNA expression level (IL5; LIF-containing medium (LIF 4 ng/ml)) | Nanog expression level (Nanog [1]; [6]) | Jak2 Gene expression level (Jak2; [6]) | Nanog expression level (Nanog [2]; [6])
CCCC=C1OC(=O)c2ccccc21 [BP, n-butylidenephthalide] | 65% | 175% | significantly up-regulated | 142% | 305% | 358% | 442% | 180% | 211% | significantly up-regulated | 113.22% | 183.28% | 213.8% | 212.83% | higher |  |  |  | 
LIF: multifunctional cell factor used to maintain pluripotency of stem cells; LIF-containing medium (4 ng/ml, without BP) as comparison |  |  |  |  |  |  |  |  |  |  |  |  |  |  |  | 35% | 386% | 159% | 204.46%
